{
  "source": "patent EP2343074A1",
  "about": "“Use of purine analogues for treating airway diseases” (Merck Serono S.A., priority 2009, dated 2011)",
  "key": {"[1]": {"test_system": "BALB/c mice", "assay_type": "in vivo", "settings": "female BALB/c mice", "method": "Female BALB/c mice, aged 10-12 wk, are housed in environmentally controlled specific pathogen-free conditions for 1 wk before study and for the duration of the experiments, which are performed according to J Appl Physiol, VOL 97, 2004, 2258-2265. Accordingly, mice are sensitized with intraperitoneal ovalbumin conjugated to aluminum potassium sulfate, as described in Am J Respir Cell Mol Biol 21: 473-479, 1999. Sensitized mice are subjected to either brief or chronic periods of allergen exposure, as described in Am J Respir Cell Mol Biol 27: 526-535, 2002. Control mice are subjected to the same sensitization protocol but are receiving saline challenges.\nAllergen-challenged and control mice are studied at 24 h after the final exposure (at day 21) in the brief allergen-challenge protocol and at week 4 after the final exposure in the chronic allergen-challenge protocol. […]\nAt day 21 or week 4, respectively, the underlying contributors to airway responsiveness, namely airway reactivity [slope of increase in total respiratory system resistance (Rrs) for a given increase in MCh dose], airway sensitivity (lowest dose of MCh to produce bronchoconstriction), and the maximum inducible bronchoconstriction (maximum Rrs) are measured following brief or chronic allergen challenge. These components of airway responsiveness are measured based on the response of Rrs to saline and increasing (10, 33, 100, and 330 µg/kg) intravenous doses of MCh. Rrs is measured by using the flow interrupter technique, modified for use in mice, and described in Am J Respir Cell Mol Biol 21: 473-479, 1999, Am J Respir Cell Mol Biol 27: 526-535, 2002 and J Appl Physiol 89: 413-421, 2000. Total respiratory system resistance (Rrs) is measured in response to increasing doses of intravenous methacholine (MCh). Using the resulting Rrs-MCh dose-response curve, indexes of airway reactivity (Slope Rrs), airway sensitivity, or the lowest dose to produce bronchoconstriction (Break Rrs) and maximal degree of bronchoconstriction (Max Rrs) are measured. […]"}, "[2]": {"test_system": "patient having asthma with recurring asthma attacks", "assay": "Treatment of an asthma patient with oral cladribine tablets", "assay_type": "in vivo", "settings": "dosage regimen disclosed in WO2006067141", "method": "A patient having asthma with recurring asthma attacks is treated with oral cladribine tablets and following the dosage regimen disclosed in WO2006067141. As a result, the symptoms of asthma and airway hyperresponsiveness are reduced in this patient."}},
  "data": [
    {"smiles": "Nc1nc(Cl)nc2c1ncn2[C@H]1C[C@H](O)[C@@H](CO)O1", "note": "[cladribine, 2-chloro-9-(2'-deoxy-beta-D-ribofuranosyl)-adenine]", "values": [
      {"measurement": "signs of asthma, increased airway reactivity and maximal bronchoconstriction", "setting": "[1]; brief or chronic allergen exposure, cladribine intraperitoneally 15 mg/kg per injection, as compared to the control", "value": "beneficial to reduce"},
      {"measurement": "asthma related symptoms such as increased bronchoconstriction and allergen-induced development of AHR", "setting": "[1]; brief or chronic allergen exposure, cladribine intraperitoneally on days 1, 5 and 9, 15 mg/kg body weight per injection, versus phosphate buffer without cladribine", "value": "reduces or abrogates"},
      {"measurement": "host toxicity", "setting": "[1]; cladribine intraperitoneally on days 1, 5 and 9, 15 mg/kg body weight per injection", "value": "little or no host toxicity"},
      {"measurement": "symptoms of asthma and airway hyperresponsiveness", "setting": "[2]", "value": "reduced"}
    ]}
  ]
}
